Values quoted from earlier work in patent EP4360619A1, “DOSAGE FORM FOR INTRA-ARTICULAR INJECTION […] AN […] IN THE TREATMENT OF CRYSTAL-AND NON-CRYSTAL […] IN[…]” (PK MED, priority 2022, dated 2024).

Details: literature (E.Niel et al)

COc1cc2c(c(OC)c1OC)-c1ccc(OC)c(=O)cc1[C@@H](NC(C)=O)CC2 [colchicine, N-[(7S)-1,2,3,10-tetramethoxy-9-oxo-6,7-dihydro-5H-benzo[a]heptalen-7-yl]acetamide]
lethal dose: 0.8 mg/kg | toxicity limit: 0.1 mg/kg
